In ChEMBL document CHEMBL5653615 (J Biol Chem, 2013):
One block for each molecule: values may come before it.

How the values were obtained:
[1] = biological target: Activated CDC42 kinase 1 (Homo sapiens) (UniProt Q07912); assay: Inhibition of human ACK1 at 18.6 nM by HotSpot assay relative to control
[2] = biological target: Tyrosine-protein kinase receptor UFO (Homo sapiens) (UniProt P30530); assay: Inhibition of human AXL at 18.6 nM by HotSpot assay relative to control
[3] = biological target: Calcium/calmodulin-dependent protein kinase type 1B (Homo sapiens) (UniProt Q6P2M8); assay: Inhibition of human CAMK1b at 18.6 nM by HotSpot assay relative to control
[4] = biological target: Calcium/calmodulin-dependent protein kinase type II subunit delta (Homo sapiens) (UniProt Q13557); assay: Inhibition of human CAMK2d at 18.6 nM by HotSpot assay relative to control
[5] = biological target: T1, Ephrin type-B receptor 2 (Homo sapiens) (UniProt P29323); assay: Inhibition of human EPHB2 at 18.6 nM by HotSpot assay relative to control
T1 sequence (whole entry): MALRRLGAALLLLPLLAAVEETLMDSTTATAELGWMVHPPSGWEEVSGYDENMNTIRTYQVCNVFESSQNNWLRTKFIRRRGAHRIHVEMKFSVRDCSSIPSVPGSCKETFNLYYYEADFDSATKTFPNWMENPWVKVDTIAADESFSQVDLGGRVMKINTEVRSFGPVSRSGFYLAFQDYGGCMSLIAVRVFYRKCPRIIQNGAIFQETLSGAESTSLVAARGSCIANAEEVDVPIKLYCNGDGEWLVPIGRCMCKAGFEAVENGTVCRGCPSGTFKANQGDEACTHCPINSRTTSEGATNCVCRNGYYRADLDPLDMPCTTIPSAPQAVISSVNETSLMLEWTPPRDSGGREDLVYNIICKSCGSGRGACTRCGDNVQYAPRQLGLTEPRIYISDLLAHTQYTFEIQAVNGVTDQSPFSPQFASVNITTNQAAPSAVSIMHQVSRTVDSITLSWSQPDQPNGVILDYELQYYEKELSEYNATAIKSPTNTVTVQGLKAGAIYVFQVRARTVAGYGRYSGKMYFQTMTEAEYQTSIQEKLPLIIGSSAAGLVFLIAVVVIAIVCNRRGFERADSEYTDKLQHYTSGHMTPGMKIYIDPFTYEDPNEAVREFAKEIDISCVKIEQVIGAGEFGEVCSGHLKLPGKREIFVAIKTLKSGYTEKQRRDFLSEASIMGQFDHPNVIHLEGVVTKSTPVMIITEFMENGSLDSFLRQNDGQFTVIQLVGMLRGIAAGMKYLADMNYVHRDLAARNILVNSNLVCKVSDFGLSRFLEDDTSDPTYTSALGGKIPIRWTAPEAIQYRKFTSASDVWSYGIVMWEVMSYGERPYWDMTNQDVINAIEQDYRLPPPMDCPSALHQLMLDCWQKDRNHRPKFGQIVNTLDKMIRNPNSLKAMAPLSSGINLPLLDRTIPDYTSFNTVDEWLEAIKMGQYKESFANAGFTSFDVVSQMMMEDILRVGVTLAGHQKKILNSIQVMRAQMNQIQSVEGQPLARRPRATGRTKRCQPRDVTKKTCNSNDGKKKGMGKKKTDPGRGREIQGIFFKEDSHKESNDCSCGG

[6] = biological target: Focal adhesion kinase 1 (Homo sapiens) (UniProt Q05397); assay: Inhibition of human FAK at 18.6 nM by HotSpot assay relative to control
[7] = biological target: Homeodomain-interacting protein kinase 3 (Homo sapiens) (UniProt Q9H422); assay: Inhibition of human HIPK3 at 18.6 nM by HotSpot assay relative to control
Chain of Homeodomain-interacting protein kinase 3 (Homo sapiens) (Q9H422 whole entry, looked up): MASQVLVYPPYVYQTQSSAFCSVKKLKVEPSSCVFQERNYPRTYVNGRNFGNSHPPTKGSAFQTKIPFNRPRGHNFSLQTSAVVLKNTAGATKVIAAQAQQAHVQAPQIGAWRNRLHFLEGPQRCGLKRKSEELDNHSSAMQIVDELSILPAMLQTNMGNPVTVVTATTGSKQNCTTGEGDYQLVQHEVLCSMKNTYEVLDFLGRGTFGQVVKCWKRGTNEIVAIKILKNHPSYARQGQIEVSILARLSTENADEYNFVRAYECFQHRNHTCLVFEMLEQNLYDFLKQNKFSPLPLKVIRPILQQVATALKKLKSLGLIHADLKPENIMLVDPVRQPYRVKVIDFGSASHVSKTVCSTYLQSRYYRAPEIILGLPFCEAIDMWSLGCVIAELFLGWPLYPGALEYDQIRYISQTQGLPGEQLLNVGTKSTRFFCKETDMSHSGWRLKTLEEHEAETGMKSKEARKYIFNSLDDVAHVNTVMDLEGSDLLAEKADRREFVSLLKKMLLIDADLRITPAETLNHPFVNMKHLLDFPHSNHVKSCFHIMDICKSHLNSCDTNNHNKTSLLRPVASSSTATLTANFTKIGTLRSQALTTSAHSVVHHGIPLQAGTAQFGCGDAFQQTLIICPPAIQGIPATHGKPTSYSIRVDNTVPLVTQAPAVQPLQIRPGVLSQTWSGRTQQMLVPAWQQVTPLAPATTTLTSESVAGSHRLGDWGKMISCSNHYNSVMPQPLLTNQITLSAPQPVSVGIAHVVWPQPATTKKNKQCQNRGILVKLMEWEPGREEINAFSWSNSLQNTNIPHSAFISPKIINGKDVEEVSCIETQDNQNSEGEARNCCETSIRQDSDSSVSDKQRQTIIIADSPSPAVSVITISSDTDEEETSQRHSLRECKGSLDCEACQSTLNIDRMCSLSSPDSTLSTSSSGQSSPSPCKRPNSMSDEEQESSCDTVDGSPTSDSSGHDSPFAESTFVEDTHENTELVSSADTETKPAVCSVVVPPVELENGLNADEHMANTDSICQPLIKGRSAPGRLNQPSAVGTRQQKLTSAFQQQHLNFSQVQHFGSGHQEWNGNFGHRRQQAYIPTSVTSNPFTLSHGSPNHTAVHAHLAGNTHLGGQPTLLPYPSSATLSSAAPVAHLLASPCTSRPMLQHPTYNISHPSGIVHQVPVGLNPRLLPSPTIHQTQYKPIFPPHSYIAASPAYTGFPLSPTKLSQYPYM

[8] = biological target: Vascular endothelial growth factor receptor 2 (Homo sapiens) (UniProt P35968); assay: Inhibition of human KDR at 18.6 nM by HotSpot assay relative to control
[9] = biological target: LIM domain kinase 1 (Homo sapiens) (UniProt P53667); assay: Inhibition of human LIMK1 at 18.6 nM by HotSpot assay relative to control
[10] = biological target: Serine/threonine-protein kinase PAK 1 (Homo sapiens) (UniProt Q13153); assay: Inhibition of human PAK1 at 18.6 nM by HotSpot assay relative to control
[11] = biological target: Serine/threonine-protein kinase PAK 2 (Homo sapiens) (UniProt Q13177); assay: Inhibition of human PAK2 at 18.6 nM by HotSpot assay relative to control
Chain of Serine/threonine-protein kinase PAK 2 (Homo sapiens) (Q13177 whole entry): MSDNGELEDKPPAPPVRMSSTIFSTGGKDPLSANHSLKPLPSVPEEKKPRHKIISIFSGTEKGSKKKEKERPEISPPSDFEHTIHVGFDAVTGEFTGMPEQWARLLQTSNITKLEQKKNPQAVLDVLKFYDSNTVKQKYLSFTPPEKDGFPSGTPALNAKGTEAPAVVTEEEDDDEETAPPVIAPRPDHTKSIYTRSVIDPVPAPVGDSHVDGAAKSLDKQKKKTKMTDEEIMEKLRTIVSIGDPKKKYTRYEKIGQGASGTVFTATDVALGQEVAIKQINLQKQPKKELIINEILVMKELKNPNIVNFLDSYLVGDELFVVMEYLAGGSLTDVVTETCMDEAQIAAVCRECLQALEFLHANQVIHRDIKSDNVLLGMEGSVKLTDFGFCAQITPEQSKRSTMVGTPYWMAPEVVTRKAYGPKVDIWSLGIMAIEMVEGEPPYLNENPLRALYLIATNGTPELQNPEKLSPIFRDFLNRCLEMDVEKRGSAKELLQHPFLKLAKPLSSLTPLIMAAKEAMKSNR

[12] = biological target: T2, Protein kinase C zeta type (Homo sapiens) (UniProt Q05513); assay: Inhibition of human PKCzeta at 18.6 nM by HotSpot assay relative to control
T2 sequence (whole entry): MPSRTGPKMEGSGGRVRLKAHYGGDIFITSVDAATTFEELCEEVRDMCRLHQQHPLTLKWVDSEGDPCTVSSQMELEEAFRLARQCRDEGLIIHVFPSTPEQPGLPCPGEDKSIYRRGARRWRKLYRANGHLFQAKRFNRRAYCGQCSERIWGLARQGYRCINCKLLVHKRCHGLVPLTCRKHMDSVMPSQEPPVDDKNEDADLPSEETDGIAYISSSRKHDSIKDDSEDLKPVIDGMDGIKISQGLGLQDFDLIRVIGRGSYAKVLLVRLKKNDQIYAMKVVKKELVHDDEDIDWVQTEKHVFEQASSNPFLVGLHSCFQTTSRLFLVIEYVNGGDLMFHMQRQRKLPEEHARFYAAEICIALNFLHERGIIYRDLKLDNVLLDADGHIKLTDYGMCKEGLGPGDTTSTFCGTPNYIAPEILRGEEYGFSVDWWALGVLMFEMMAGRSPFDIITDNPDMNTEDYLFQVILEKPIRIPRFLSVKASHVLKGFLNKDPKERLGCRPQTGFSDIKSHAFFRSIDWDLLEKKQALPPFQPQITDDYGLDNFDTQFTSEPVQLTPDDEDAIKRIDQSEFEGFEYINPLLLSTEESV

[13] = biological target: Calcium/calmodulin-dependent protein kinase kinase 1 (Homo sapiens) (UniProt Q8N5S9); assay: Inhibition of human CAMKK1 at 500 nM by HotSpot assay relative to control
Chain of Calcium/calmodulin-dependent protein kinase kinase 1 (Homo sapiens) (Q8N5S9 whole entry, looked up): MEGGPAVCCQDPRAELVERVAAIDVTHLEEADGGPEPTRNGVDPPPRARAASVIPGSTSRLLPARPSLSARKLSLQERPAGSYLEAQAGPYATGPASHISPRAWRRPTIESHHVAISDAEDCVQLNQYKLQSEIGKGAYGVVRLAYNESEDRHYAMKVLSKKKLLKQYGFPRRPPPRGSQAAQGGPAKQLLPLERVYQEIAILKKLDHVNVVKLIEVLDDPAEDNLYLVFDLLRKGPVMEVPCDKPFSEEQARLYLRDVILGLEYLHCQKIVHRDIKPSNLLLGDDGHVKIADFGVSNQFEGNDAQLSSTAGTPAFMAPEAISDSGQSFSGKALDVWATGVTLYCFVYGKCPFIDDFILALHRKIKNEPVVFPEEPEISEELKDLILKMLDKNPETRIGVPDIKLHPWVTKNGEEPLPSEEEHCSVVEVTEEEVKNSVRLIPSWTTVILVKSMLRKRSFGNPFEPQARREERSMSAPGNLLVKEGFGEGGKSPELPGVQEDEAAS

[14] = biological target: Tyrosine-protein kinase Lyn (Homo sapiens) (UniProt P07948); assay: Inhibition of human LYN B at 1.82 nM by HotSpot assay relative to control
[15] = biological target: Dual specificity mitogen-activated protein kinase kinase 1 (Homo sapiens) (UniProt Q02750); assay: Inhibition of human MEK1 at 1.82 nM by HotSpot assay relative to control
[16] = biological target: Dual specificity mitogen-activated protein kinase kinase 2 (Homo sapiens) (UniProt P36507); assay: Inhibition of human MEK2 at 1.82 nM by HotSpot assay relative to control
[17] = biological target: Serine/threonine-protein kinase PLK3 (Homo sapiens) (UniProt Q9H4B4); assay: Inhibition of human PLK3 at 1.82 nM by HotSpot assay relative to control
Chain of Serine/threonine-protein kinase PLK3 (Homo sapiens) (Q9H4B4 whole entry, looked up): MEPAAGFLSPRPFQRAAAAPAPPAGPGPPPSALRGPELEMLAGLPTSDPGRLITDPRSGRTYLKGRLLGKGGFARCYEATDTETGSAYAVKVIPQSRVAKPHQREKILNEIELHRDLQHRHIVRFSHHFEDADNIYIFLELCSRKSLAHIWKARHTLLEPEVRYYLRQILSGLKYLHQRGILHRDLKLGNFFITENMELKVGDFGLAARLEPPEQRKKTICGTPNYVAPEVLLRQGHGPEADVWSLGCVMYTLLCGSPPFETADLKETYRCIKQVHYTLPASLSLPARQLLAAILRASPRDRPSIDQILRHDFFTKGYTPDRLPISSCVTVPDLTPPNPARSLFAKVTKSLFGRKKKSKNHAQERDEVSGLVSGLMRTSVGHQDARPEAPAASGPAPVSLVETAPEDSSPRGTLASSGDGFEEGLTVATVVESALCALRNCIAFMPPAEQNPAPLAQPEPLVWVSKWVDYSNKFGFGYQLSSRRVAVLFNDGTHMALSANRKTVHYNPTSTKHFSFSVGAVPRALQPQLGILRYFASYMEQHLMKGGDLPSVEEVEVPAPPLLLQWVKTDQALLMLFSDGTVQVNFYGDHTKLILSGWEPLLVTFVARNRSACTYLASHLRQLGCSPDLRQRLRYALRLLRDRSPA

[18] = biological target: Wee1-like protein kinase (Homo sapiens) (UniProt P30291); assay: Inhibition of human WEE1 at 1.82 nM by HotSpot assay relative to control
Chain of Wee1-like protein kinase (Homo sapiens) (P30291 whole entry, looked up): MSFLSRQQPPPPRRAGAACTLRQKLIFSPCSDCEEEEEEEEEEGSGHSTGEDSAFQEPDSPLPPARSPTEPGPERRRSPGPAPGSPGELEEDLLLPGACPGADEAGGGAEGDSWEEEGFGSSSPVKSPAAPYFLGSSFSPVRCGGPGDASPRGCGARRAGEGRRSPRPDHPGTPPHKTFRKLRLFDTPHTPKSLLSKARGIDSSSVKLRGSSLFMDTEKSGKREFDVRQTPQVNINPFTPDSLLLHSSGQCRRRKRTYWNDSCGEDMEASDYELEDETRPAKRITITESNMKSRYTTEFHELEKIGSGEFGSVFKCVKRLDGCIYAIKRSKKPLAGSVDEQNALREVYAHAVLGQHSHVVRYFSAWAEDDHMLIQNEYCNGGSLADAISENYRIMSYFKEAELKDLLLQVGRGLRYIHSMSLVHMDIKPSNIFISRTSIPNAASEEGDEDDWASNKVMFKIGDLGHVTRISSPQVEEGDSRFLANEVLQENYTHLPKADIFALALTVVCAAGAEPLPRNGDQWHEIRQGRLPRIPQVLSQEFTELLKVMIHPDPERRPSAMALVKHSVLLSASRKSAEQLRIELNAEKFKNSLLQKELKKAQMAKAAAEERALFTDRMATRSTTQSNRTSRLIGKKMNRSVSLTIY

[19] = biological target: Tyrosine-protein kinase Yes (Homo sapiens) (UniProt P07947); assay: Inhibition of human YES1 at 1.82 nM by HotSpot assay relative to control
Chain of Tyrosine-protein kinase Yes (Homo sapiens) (P07947 2-543 limits assumed): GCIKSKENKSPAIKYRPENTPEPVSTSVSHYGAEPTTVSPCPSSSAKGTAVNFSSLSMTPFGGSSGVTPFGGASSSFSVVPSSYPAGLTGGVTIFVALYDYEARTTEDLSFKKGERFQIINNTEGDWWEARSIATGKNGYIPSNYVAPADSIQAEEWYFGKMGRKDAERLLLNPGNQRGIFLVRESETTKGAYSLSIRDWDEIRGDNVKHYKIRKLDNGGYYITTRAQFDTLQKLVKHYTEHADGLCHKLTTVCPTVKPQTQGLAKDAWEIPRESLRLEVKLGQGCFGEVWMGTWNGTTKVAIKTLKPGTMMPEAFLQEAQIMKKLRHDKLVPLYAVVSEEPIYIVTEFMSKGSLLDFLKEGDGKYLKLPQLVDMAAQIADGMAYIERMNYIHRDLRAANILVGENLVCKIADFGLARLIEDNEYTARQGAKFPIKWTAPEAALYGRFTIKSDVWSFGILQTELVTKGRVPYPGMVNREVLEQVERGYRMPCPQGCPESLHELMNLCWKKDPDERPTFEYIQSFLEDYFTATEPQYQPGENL

Chain of Tyrosine-protein kinase receptor UFO (Homo sapiens) (P30530 whole entry): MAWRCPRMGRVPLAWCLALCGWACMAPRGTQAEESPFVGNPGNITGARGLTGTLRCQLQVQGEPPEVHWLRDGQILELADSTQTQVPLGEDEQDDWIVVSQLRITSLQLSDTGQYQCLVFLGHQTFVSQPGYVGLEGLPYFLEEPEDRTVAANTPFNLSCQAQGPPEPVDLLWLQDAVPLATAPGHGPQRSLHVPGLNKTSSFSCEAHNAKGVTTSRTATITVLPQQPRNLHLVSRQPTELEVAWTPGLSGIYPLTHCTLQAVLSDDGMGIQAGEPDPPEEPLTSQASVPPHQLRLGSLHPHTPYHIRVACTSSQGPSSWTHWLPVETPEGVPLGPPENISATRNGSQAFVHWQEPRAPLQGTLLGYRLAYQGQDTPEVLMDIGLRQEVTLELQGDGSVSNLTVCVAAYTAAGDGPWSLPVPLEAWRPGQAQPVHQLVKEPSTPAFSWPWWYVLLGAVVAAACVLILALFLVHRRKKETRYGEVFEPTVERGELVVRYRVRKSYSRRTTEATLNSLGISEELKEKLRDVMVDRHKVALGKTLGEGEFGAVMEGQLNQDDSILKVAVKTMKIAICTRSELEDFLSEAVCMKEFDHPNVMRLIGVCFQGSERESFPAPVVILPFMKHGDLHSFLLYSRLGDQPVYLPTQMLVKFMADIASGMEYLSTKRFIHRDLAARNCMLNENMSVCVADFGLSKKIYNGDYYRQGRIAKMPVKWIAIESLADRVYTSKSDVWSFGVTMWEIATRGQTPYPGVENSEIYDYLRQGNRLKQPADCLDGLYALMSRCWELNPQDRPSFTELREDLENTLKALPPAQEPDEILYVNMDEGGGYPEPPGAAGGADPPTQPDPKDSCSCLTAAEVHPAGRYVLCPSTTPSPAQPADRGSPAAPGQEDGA

- inhibition [1]: 3%
- inhibition [2]: 3.94%
- inhibition [3]: -4.62%
- inhibition [4]: 0.37%
- inhibition [5]: -7.65%
- inhibition [6]: 1.73%
- inhibition [7]: -5.3%
- inhibition [8]: -3.85%
- inhibition [9]: -8.11%
- inhibition [10]: -0.8%
- inhibition [11]: -7.87%
- inhibition [12]: -2.9%
SMILES: C[C@]1(O)C[C@@H](c2nc(-c3ccc4ccc(-c5ccccc5)nc4c3)c3c(N)nccn32)C1

SMILES: Oc1n[nH]c2nnc(-c3c(-c4ccccc4)nn4ccccc34)cc12
- inhibition [13]: -9.31%

- inhibition [14]: 2.74%
- inhibition [15]: -6.3%
- inhibition [16]: 1.78%
- inhibition [17]: 2.72%
- inhibition [18]: 1.94%
- inhibition [19]: 5.36%
SMILES: C[C@@]1(C(=O)Nc2ccc(F)nc2)CCCN1c1nc(Nc2cc(C3CC3)n[nH]2)c2cccn2n1
